We go through 28 compounds from patent publication US7288547B2, “CDK-inhibitory 2-heteroaryl-pyrimidines, their production and use as pharmaceutical agents” (Schering AG, priority 2002, dated 2007).

Where two headings read alike, the source gives them in different places.

The test system of one assay is MCF7. Briefly: Proliferation Assay (crystal violet). The format is cell-based, human. As to the method:
Cultivated human tumor cells (as indicated) were flattened out at a density of 5000 cells/measuring point in a 96-well multititer plate in 200 μl of the corresponding growth medium. After 24 hours, the cells of one plate (zero-point plate) were colored with crystal violet (see below), while the medium of the other plates was replaced by fresh culture medium (200 μl), to which the test substances were added in various concentrations (0 μm, as well as in the range of 0.01-30 μm; the final concentration of the solvent dimethyl sulfoxide was 0.5%). The cells were incubated for 4 days in the presence of test substances. The cell proliferation was determined by coloring the cells with crystal violet: the cells were fixed by adding 20 μl/measuring point of a 11% glutaric aldehyde solution for 15 minutes at room temperature. After three washing cycles of the fixed cells with water, the plates were dried at room temperature. The cells were colored by adding 100 μl/measuring point of a 0.1% crystal violet solution (pH was set at 3 by adding acetic acid). After three washing cycles of the colored cells with water, the plates were dried at room temperature. The dye was dissolved by adding 100 μl/measuring point of a 10% acetic acid solution. The extinction was determined by photometry at a wavelength of 595 nm. The change of cell growth, in percent, was calculated by standardization of the measured values to the extinction values of the zero-point plate (=0%) and the extinction of the untreated (0 μm) cells (=100%).

The target in a further assay is T1, CDK2/CycE (Homo sapiens, UniProt P24941).
T1 construct: GST; purchased Proquinase Company, Freiburg; host or cells: baculovirus-infected insect cells (Sf9)
Briefly: CDK2/CycE Kinase Assay. The format is biochemical. As for the experimental part:
Recombinant CDK2- and CycE-GST-fusion proteins, purified from baculovirus-infected insect cells (Sf9), were purchased by the Proquinase Company, Freiburg. Histone IIIS, which was used as a kinase substrate, was purchased by the Sigma Company.
The reaction was stopped by adding EDTA solution (250 mmol, pH 8.0, 14 μl/measuring point).
From each reaction batch, 10 μl was applied to P30 filter strips (Wallac Company), and non-incorporated ^33P-ATP was removed by subjecting the filter strips to three washing cycles for 10 minutes each in 0.5% phosphoric acid. After the filter strips were dried for one hour at 70° C., the filter strips were covered with scintillator strips (MeltiLex™ A, Wallac Company) and baked for one hour at 90° C. The amount of incorporated ^33P (substrate phosphorylation) was determined by scintillation measurement in a gamma-radiation measuring device (Wallac).

The mark [1] stands for this setting: Homo sapiens, MCF7, 96 h, MCF7 cells, 4 days incubation, read-out: Proliferation IC50 MCF7.
Where [2] appears, read: read-out: Inhibition IC50 CDK2/CycE.
Setting [3] is: Homo sapiens, MCF7, MCF-7 cells, comparison with known reference compounds, read-out: MCF-7 IC50.

In the case of `C[C@H](CO)Nc1nc(Nc2ccc(S(=O)(=O)NCCO)nc2)ncc1Br` [Example 1.20], the IC50 in the assay on MCF7 (setting [1]) stood at 1900 nM; at CDK2/CycE (setting [2]) it was 13 nM.

`C[C@H](CO)Nc1nc(Nc2ccc(S(N)(=O)=O)nc2)ncc1Br` [Example 1.7]: the IC50 at CDK2/CycE (setting [2]) turned out to be 6 nM.

As for `CCC(Sc1nc(Nc2ccc(S(N)(=O)=O)nc2)ncc1Br)C(C)O` (centres unmarked) [Example 4.6, 5-[5-bromo-4-(1-ethyl-2-hydroxy-propylsulfanyl)-pyrimidin-2-ylamino]-pyridine-2-sulfonic acid amide], the IC50 in the assay on MCF7 (setting [1]) is 630 nM; at CDK2/CycE (setting [2]) it was 74 nM.

As to `CC(CO)N(C)c1nc(Nc2ccc(S(N)(=O)=O)nc2)ncc1Br` (centres unmarked) [Example 3.3], the IC50 in the assay on MCF7 (setting [1]) was 620 nM; on CDK2/CycE (setting [2]), 36 nM.

As to `CC(C)[C@H](CO)Nc1nc(Nc2ccc(S(N)(=O)=O)nc2)ncc1Br` [Example 1.11], the IC50 in the assay with MCF7 (setting [1]) turned out to be 1200 nM; on CDK2/CycE (setting [2]) it was 40 nM.

Turning to `CC(Nc1nc(Nc2ccc(S(N)(=O)=O)nc2)ncc1Br)C(C)NC1CC1` (centres unmarked) [Example 6.0, 5-[5-bromo-4-(2-cyclopropylamino-1-methyl-propylamino)-pyrimidin-2-ylamino]-pyridine-2-sulfonic acid amide], the IC50 in the assay on MCF7 (setting [1]) turned out to be 2300 nM; on CDK2/CycE (setting [2]) it was 25 nM.

Regarding `CC(O)C(C)Nc1nc(Nc2ccc(S(N)(=O)=O)nc2)ncc1Br` (centres unmarked) [Example 1.12], the results for the IC50 with MCF7 (setting [1]) and on CDK2/CycE (setting [2]) were 240 nM and 22 nM, respectively.

As to `NS(=O)(=O)c1ccc(Nc2ncc(Br)c(NC3CCCCC3)n2)cn1` [Example 3.12], the IC50 in the assay with MCF7 (setting [1]) is 790 nM; at CDK2/CycE (setting [2]), 20 nM.

`CC(O)C(C)Sc1nc(Nc2ccc(S(N)(=O)=O)nc2)ncc1Br` (centres unmarked) [Example 4.3]: the IC50 turned out to be 230 nM in the assay with MCF7 (setting [1]) and 34 nM at CDK2/CycE (setting [2]).

With `CC1CCCCC1Nc1nc(Nc2ccc(S(N)(=O)=O)nc2)ncc1Br` (centres unmarked) [Example 3.13], the IC50 is 300 nM with MCF7 (setting [1]) and 16 nM on CDK2/CycE (setting [2]).

As to `Cn1cnc2c(NCc3ccccc3)nc(NCCO)nc21` [Olomoucine, reference compound], in the assay with MCF7 (setting [3]), the IC50 worked out at 30000 nM.

On to `O=C1Cc2c([nH]c3ccc([N+](=O)[O-])cc23)-c2ccccc2N1` [Alsterpaullone, reference compound], for which the IC50 in the assay with MCF7 (setting [3]) came to 1200 nM.

For `CCC(CO)Sc1nc(Nc2ccc(S(N)(=O)=O)nc2)ncc1Br` (centres unmarked) [Example 4.2], the IC50 is 260 nM in the assay on MCF7 (setting [1]) and under 10 nM on CDK2/CycE (setting [2]).

Take `CC(C)[C@H](CO)Nc1nc(Nc2cc(S(N)(=O)=O)sc2Cl)ncc1Br` [Example 1.8]: the IC50 in the assay with MCF7 (setting [1]) is 3000 nM; at CDK2/CycE (setting [2]), 87 nM.

With `COC[C@H](C)Nc1nc(Nc2ccc(S(N)(=O)=O)nc2)ncc1Br` [Example 1.16], the figures for the IC50 in the assay with MCF7 (setting [1]) and at CDK2/CycE (setting [2]) were 2000 nM and 36 nM, respectively.

Regarding `C[C@@H](O)[C@@H](C)Nc1nc(Nc2ccc(S(N)(=O)=O)nc2)ncc1Br` [Example 3.6], the IC50 was 100 nM with MCF7 (setting [1]) and under 10 nM on CDK2/CycE (setting [2]).

Consider `C[C@H](O)[C@H](C)Nc1nc(Nc2ccc(S(N)(=O)=O)nc2)ncc1Br` [Example 3.5], for which the IC50 in the assay with MCF7 (setting [1]) was 880 nM; at CDK2/CycE (setting [2]) it was under 10 nM.

Regarding `C[C@@H](O)[C@@H](C)Nc1nc(Nc2ccc(S(N)(=O)=O)nc2)ncc1Br` [Example 1.13], the IC50 is under 100 nM with MCF7 (MCF7 cells, 4 days incubation, read-out: Proliferation IC50 MCF7) and 8 nM on CDK2/CycE (setting [2]).

In the case of `CC(C)[C@H](CO)Nc1nc(Nc2csc(S(N)(=O)=O)c2)ncc1Br` [Example 1.9], the IC50 at CDK2/CycE (setting [2]) was 50 nM.

Consider `CC(=O)C(C)Nc1nc(Nc2ccc(S(N)(=O)=O)nc2)ncc1Br` (centres unmarked) [Example 1.14], for which the IC50 came to 870 nM in the assay with MCF7 (setting [1]) and 17 nM on CDK2/CycE (setting [2]).

In the case of `CC[C@H](CO)Nc1nc(Nc2ccc(S(N)(=O)=O)nc2)ncc1Br` [Example 1.17], the IC50 in the assay with MCF7 (setting [1]) worked out at 500 nM; at CDK2/CycE (setting [2]) it was 7 nM.

In the case of `CC(CO)Sc1nc(Nc2ccc(S(N)(=O)=O)nc2)ncc1Br` (centres unmarked) [Example 4.1], the IC50 in the assay on MCF7 (setting [1]) is 610 nM; on CDK2/CycE (setting [2]), under 10 nM.

As for `CC[C@@H](CO)Nc1nc(Nc2ccc(S(N)(=O)=O)nc2)ncc1Br` [Example 1.15], the results for the IC50 in the assay with MCF7 (setting [1]) and at CDK2/CycE (setting [2]) were 2000 nM and 13 nM, respectively.

For the compound `NS(=O)(=O)c1ccc(Nc2ncc(Br)c(SCCCCO)n2)cn1` [Example 1.21], the values for the IC50 with MCF7 (setting [1]) and on CDK2/CycE (setting [2]) were 5300 nM and 30 nM, respectively.

In the case of `CC(Nc1nc(Nc2ccc(S(N)(=O)=O)nc2)ncc1Br)C(C)(C)O` (centres unmarked) [Example 3.4], the IC50 in the assay with MCF7 (setting [1]) stood at 840 nM; at CDK2/CycE (setting [2]), 58 nM.

Take `O=C1Cc2c([nH]c3ccc(Br)cc23)-c2ccccc2N1` [Kenpaullone, reference compound]: in the assay with MCF7 (setting [3]), the IC50 came out at 6000 nM.

With `NS(=O)(=O)c1ccc(Nc2ncc(Br)c(NCC3CC3)n2)cn1` [Example 1.19], the IC50 on CDK2/CycE (setting [2]) was 12 nM.

`CC(C)[C@H](CO)Nc1nc(Nc2cccc(Cl)c2)c2ncn(C(C)C)c2n1` [Purvalanol A, reference compound]: the IC50 is 2000 nM with MCF7 (setting [3]) and 10 nM at CDK2/CycE (comparison with known reference compounds, read-out: CDK2/CycE IC50).
